Results reported in patent US7718578B2, “Method of synthesis and testing of combinatorial libraries using microcapsules” (Medical Research Council, priority 2003, dated 2010).

How the values were obtained:
[1] = Compartmentalisation of small molecules in water-in-fluorocarbon emulsions (epifluorescence microscopy); type: physicochemical; settings: water-in-perfluorooctyl bromide emulsions mixed by vortexing, 24 hours after mixing
Method: Water-in-fluorocarbon emulsions containing 95% (v/v) perfluorooctyl bromide, 5% (v/v) phosphate buffered saline containing the molecule of interest in solution, and 2% (w/v) C8F17C11H22OP(O)[N(CH2CH2)2O]2 (F8H11DMP) as surfactant were formed essentially as (Sadtler et al., 1996) by extrusion (15 times) through 14 μm filters (Osmonics) or by homogenising for 5 min at 25,000 r.p.m. using an Ultra-Turrax T8 Homogenizer (IKA) with a 5 mm dispersing tool. Emulsions were made containing a series of small fluorescent molecules dissolved in the aqueous phase at concentrations from […] to 2 mM. These molecules, including calcein, texas red, fluorescein, coumarin 102, 7-hydroxycoumarin-3-carboxylic acid and 7-diethylamino-4-methyl coumarin (coumarin 1), had molecular weights from 203 to 625 Da and Log P values—calculated using SRC's LogKow/KowWin Program (Meylan and Howard, 1995)—ranging from −0.49 to 4.09. Emulsions containing different coloured fluorochromes were mixed by vortexing. Compartmentalisation was observed by epifluorescence microscopy of the mixed emulsions. No exchange between compartments was observed 24 hours after mixing (see FIG. 5).

[2] = target: T1, human recombinant PTP1B, residues 1-322 (Homo sapiens, UniProt P18031); test: Screening for PTP1B inhibitors in water-in-oil emulsion microcapsules with fluorogenic substrate DiFMUP, multi-colour flow cytometry; type: biochemical; settings: PTP1B 5 mU/ml, 37° C. for 30 min
T1 construct: human recombinant PTP1B, residues 1-322; Biomol Research Laboratories, Inc; purchased Biomol Research Laboratories, Inc
T1 sequence (P18031 1-322): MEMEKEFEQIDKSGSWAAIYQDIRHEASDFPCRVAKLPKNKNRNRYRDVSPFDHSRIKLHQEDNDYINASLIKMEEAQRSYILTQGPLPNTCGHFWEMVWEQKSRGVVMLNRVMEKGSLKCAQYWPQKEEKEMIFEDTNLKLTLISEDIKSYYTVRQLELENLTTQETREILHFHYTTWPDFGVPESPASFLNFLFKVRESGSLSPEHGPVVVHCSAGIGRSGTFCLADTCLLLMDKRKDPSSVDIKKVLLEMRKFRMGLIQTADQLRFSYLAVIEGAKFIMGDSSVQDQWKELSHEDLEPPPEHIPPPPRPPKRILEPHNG
Method: A solution of 1% (w/v) Span 60 and 1% (w/v) cholesterol in decane (all from Sigma Aldrich) is prepared by dissolving 80 mg of Span 60 and 80 mg of cholesterol into 7.84 ml of decane. The decane is heated to 45° C. to allow complete solubilization of the surfactant and cholesterol. The surfactant/decane solution is divided over batches of 200 μl and placed in a block-heater at 37° C.
A hand-extruding device (Mini extruder, Avanti Polar Lipids Inc, Alabaster, Ala., USA) is assembled according to the manufacturer's instructions. For extrusion, a single 19 mm Track-Etch polycarbonate filter with average pore size of 14 μm (Whatman Nuclepore, Whatman, Maidstone, UK) is fitted inside the mini extruder. Two gas-tight 1 ml Hamilton syringes (Gastight #1001, Hamilton Co, Reno, Nev., USA) are used for extrusion. […]
The two emulsions are mixed by vortexing in ratios varying from 1:1000 to 1:1 (compound 2 emulsion: hydrocinnamic acid emulsion) and incubated at 37° C. for 30 min. Inhibitors reduce the amount of non-fluorescent substrate (DiFMUP) converted to the dephosphorylated product (DiFMU; excitation/emmission maxima 358/452 nm; blue fluorescence). […]
The double emulsions are then analysed by multi-colour flow cytometery using a MoFlo (Cytomation) flow cytometer. […]

[3] = target: T1, human recombinant PTP1B, residues 1-322; test: Screening for PTP1B inhibition using microcapsules in microfluidic systems (DiFMUP, epifluorescence microscope); type: biochemical; settings: Example 5: 100 μM compound solution, PTP1B 50 mU/ml, microfluidic droplets in PFD carrier fluid
Method: Microchannels are fabricated with rectangular cross-sections using rapid prototyping in poly(dimethylsiloxane) (PDMS) (McDonald and Whitesides, 2002) and rendered hydrophobic as (Song and Ismagilov, 2003). Syringe pumps were used to drive flows (Harvard Apparatus PHD 2000 Infusion pumps). For aqueous solutions, 50 μl Hamilton Gastight syringes (1700 series, TLL) with removeable needles of 27-gaugeare used with 30-gauge Teflon tubing (Weico Wire and Cable). For the carrier fluid, 1 ml Hamilton Gastight syringes (1700 series, TLL) are used with 30-gauge Teflon needles with one hub from Hamilton (Song and Ismagilov, 2003). The carrier fluid is 9% (v/v) C6F11C2H4OH in perfluorodecaline (PFD) (Song et al., 2003). All water-soluble reagents were dissolved in (25 mM HEPES, pH 7.4, 125 mM NaCl, 1 mM EDTA), a buffer compatible with PTP1B activity.
These three steams are continuously injected into a flow of water immiscible fluorocarbon carrier fluid (9% (v/v) C6F11C2H4OH in PFD). Inlet channels for the aqeous solutions are […] wide and channel for PFD is 28 μm wide. […]
The channel immediately downstream of the point of droplet formation is winding with a peak to peak distance of 50 μm for a distance of 1 mm. […] Fluorescence of the microcapsules due to production of DiFMU (excitation/emmission maxima 358/452 nm; blue fluorescence) is measured using an epifluorescence microscope. […]

Compound: O=C(O)CN(CC(=O)O)Cc1cc2c(cc1O)Oc1cc(O)c(CN(CC(=O)O)CC(=O)O)cc1C21OC(=O)c2ccccc21 [calcein]
- exchange between microdroplets / compartments [1]: No exchange

Compound: O=C(O)CCc1ccccc1 [hydrocinnamic acid]
- blue fluorescence of microcapsules (dephosphorylation of DiFMUP by PTP1B) ([2]; Example 1: 100 μM compound, two emulsions mixed by vortexing): blue fluorescence due to dephosphorylation of DiFMUP by PTP1B
- blue fluorescence of microcapsules (dephosphorylation of DiFMUP by PTP1B) ([2]; Example 2: 100 μM compound, mixtures added sequentially while homogenising): blue fluorescence due to dephosphorylation of DiFMUP by PTP1B
- fluorescence of microcapsules due to production of DiFMU [3]: exhibiting blue fluorescence

Compound: texas-red
- exchange between microdroplets / compartments [1]: No exchange
